Literature values as cited in article doi:10.1101/2023.05.15.540887, “Comparative analysis of drug-like EP300/CREBBP acetyltransferase inhibitors” (bioRxiv, 2023).

Legend:
Design in all cases: method as in ref 29 (a number printed in a supplementary file, which may have a reference list of its own: not looked up in the article's list)
HS578T = settings: Breast HS578T; highest log conc -4.0; NCI-60 screen data; cited from earlier work
MDA-MB-231/ATCC = settings: Breast MDA-MB-231/ATCC; highest log conc -4.0; NCI-60 screen data; cited from earlier work
NCI-H522 = settings: Non-SmallCellLung NCI-H522; highest log conc -4.0; NCI-60 screen data; cited from earlier work
HT29 = settings: Colon HT29; highest log conc -4.0; NCI-60 screen data; cited from earlier work
K-562 = settings: Leukemia K-562; highest log conc -4.0; NCI-60 screen data; cited from earlier work
MDA-MB-435 = settings: Melanoma MDA-MB-435; highest log conc -4.0; NCI-60 screen data; cited from earlier work
T-47D = settings: Breast T-47D; highest log conc -4.0; NCI-60 screen data; cited from earlier work
M14 = settings: Melanoma M14; highest log conc -4.0; NCI-60 screen data; cited from earlier work
MALME-3M = settings: Melanoma MALME-3M; highest log conc -4.0; NCI-60 screen data; cited from earlier work
SK-MEL-28 = settings: Melanoma SK-MEL-28; highest log conc -4.0; NCI-60 screen data; cited from earlier work
SK-MEL-5 = settings: Melanoma SK-MEL-5; highest log conc -4.0; NCI-60 screen data; cited from earlier work
HCC-2998 = settings: Colon HCC-2998; highest log conc -4.0; NCI-60 screen data; cited from earlier work
SF-539 = settings: CNS SF-539; highest log conc -4.0; NCI-60 screen data; cited from earlier work
MOLT-4 = settings: Leukemia MOLT-4; highest log conc -4.0; NCI-60 screen data; cited from earlier work
OVCAR-3 = settings: Ovarian OVCAR-3; highest log conc -4.0; NCI-60 screen data; cited from earlier work
MDA-MB-468 = settings: Breast MDA-MB-468; highest log conc -4.0; NCI-60 screen data; cited from earlier work
SK-OV-3 = settings: Ovarian SK-OV-3; highest log conc -4.0; NCI-60 screen data; cited from earlier work
CCRF-CEM = settings: Leukemia CCRF-CEM; highest log conc -4.0; NCI-60 screen data; cited from earlier work
HCT-15 = settings: Colon HCT-15; highest log conc -4.0; NCI-60 screen data; cited from earlier work
SW-620 = settings: Colon SW-620; highest log conc -4.0; NCI-60 screen data; cited from earlier work
HCT-116 = settings: Colon HCT-116; highest log conc -4.0; NCI-60 screen data; cited from earlier work

Compound	GI50 AVGDATA (HS578T)	GI50 AVGDATA (MDA-MB-231/ATCC)	GI50 AVGDATA (NCI-H522)	GI50 AVGDATA (HT29)	GI50 AVGDATA (K-562)	GI50 AVGDATA (MDA-MB-435)	GI50 AVGDATA (T-47D)	GI50 AVGDATA (M14)	GI50 AVGDATA (MALME-3M)	GI50 AVGDATA (SK-MEL-28)	GI50 AVGDATA (SK-MEL-5)	GI50 AVGDATA (HCC-2998)	GI50 AVGDATA (SF-539)	GI50 AVGDATA (MOLT-4)	GI50 AVGDATA (OVCAR-3)	GI50 AVGDATA (MDA-MB-468)	GI50 AVGDATA (SK-OV-3)	GI50 AVGDATA (CCRF-CEM)	GI50 AVGDATA (HCT-15)	GI50 AVGDATA (SW-620)	other results
COC(=O)N1c2ccc3c(nc(Cc4ccccc4)n3[C@H]3CCC[C@H](C(=O)O)C3)c2CC[C@@H]1C [FT-6876]	-5.49	-4.8	-4.95	-5.26	-5.3	-5.07	-5.5	-5.23	-5.21	-4.88	-4.99	-5.08	-4.8	-4.84	-4.88	-5.42	-4.77	-5.18	-4.79	-4.33	GI50 AVGDATA (HCT-116): -4.75
Cc1sc2c(c1C)C(c1ccc(Cl)cc1)=N[C@@H](CC(=O)OC(C)(C)C)c1nnc(C)n1-2 [JQ-1]	-7.25	-6.52	-7.25	-7.01	-7.24	-6.87	-6.67	-6.11	-5.32	-6.4	-6.47	-6.54	-6.34	-5.74	-6.3	-6.95	-6.49	-6.11	-6.8	-5.39	GI50 AVGDATA (HCT-116): -6.51
CO[C@H]1CC[C@H](n2c([C@@H]3CCCC(=O)N3c3ccc(F)c(F)c3)nc3cc(-c4c(C)noc4C)ccc32)CC1 [inobrodib]	-5.68	-5.07	-5.53	-5.59	-5.55	-5.1	-5.69	-5.73	-5.76	-4.93	-5.24	-5.38	-5.01	-4.77	-4.98	-5.4	-5.39	-5.33	-5.33	-4.72	GI50 AVGDATA (HCT-116): -5
